Measured values as given in PMC5340193 (ChemMedChem, 2017).
Read-outs that look alike come from different tables or passages of the source. Starred links: 1 amine or outer side, 2 acyl side, 3 side chain; linkers in the order of their positions; H or OH if unused. Non-standard residues stand in square brackets, D forms with d. Residues, ends and D or L forms follow the SMILES beside them. His(π-(CH2)8Ph) = N[C@@H](Cc1cncn1CCCCCCCCc1ccccc1)C(=O)O; X2 = O=C([C@@H](N[*:1])[C@@H](CCc1ccccc1)CP(=O)(O)O)[*:2]; X1 = CC(C)[C@@H](CP(=O)(O)O)[C@H](N[*:1])C(=O)[*:2]; X3 = CC[C@@H](CP(=O)(O)O)[C@H](N[*:1])C(=O)[*:2]; Abu(4-PO3H2) = N[C@@H](CCP(=O)(O)O)C(=O)O

What was measured:
full-length Plk1 = full-length Plk1 (Homo sapiens, UniProt P53350); type: binding; details: for loss of potency of the Ser to Ala variants relative to 21 and 23 / more potent than the parent pThr-containing peptide 5 and its Pmab-containing congener 7: full-length Plk1 competitive ELISA
Plk2 PBD = target: T1, Plk2 PBD (Homo sapiens, UniProt Q9NYY3); type: binding
T1 sequence (Q9NYY3 355-685 limits assumed): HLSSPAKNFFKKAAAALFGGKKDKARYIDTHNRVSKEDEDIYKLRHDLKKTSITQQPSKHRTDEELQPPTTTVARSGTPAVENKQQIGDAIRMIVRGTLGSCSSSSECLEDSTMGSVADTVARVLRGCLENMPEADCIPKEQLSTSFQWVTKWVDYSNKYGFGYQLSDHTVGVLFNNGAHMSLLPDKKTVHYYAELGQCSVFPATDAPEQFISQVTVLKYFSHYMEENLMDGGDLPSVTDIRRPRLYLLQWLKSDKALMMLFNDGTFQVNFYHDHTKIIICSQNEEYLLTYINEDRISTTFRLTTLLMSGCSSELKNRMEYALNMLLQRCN

Plk3 PBD = target: T2, Plk3 PBD (Homo sapiens, UniProt Q9H4B4); type: binding
T2 sequence (Q9H4B4 335-646 limits assumed): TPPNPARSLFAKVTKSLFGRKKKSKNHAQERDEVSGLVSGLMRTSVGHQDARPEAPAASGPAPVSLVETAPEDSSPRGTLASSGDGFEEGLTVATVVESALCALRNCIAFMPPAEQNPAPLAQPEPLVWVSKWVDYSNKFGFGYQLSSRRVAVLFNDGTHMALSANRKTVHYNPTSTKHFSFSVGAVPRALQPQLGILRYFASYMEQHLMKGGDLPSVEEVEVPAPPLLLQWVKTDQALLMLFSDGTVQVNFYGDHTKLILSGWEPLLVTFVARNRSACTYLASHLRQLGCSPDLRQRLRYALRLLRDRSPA

Plk1 PBD = Plk1 PBD (Homo sapiens, UniProt P53350); type: binding
Plk1 = details: cited from earlier work
[1] = full-length Plk1, competitive ELISA, average ± SEM (n = 5)

Chain of full-length Plk1 (P53350 whole entry): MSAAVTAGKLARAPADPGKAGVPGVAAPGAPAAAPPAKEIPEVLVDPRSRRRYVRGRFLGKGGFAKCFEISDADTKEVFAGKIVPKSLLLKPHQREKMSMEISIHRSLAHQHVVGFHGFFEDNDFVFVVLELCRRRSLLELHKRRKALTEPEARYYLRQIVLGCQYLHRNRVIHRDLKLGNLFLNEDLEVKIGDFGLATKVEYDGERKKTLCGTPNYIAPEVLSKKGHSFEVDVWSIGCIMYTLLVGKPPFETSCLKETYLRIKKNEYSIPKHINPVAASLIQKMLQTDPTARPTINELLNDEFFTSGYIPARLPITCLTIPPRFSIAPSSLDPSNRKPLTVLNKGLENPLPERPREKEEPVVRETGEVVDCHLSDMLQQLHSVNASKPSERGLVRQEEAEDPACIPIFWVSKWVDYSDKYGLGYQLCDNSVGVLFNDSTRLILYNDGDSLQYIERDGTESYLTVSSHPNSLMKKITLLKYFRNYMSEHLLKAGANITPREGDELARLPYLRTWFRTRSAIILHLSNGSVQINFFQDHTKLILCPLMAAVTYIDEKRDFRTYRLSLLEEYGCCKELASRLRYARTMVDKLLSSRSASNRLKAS
Chain of Plk1 PBD (P53350 326-603 limits assumed): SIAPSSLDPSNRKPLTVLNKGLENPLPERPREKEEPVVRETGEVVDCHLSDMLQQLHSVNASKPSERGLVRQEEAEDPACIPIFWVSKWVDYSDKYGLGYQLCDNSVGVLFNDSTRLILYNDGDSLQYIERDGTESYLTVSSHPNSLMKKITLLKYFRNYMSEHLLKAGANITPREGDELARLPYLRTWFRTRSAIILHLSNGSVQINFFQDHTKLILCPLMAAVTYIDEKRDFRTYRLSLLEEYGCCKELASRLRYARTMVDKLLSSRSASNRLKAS

SMILES	IC50 (full-length Plk1)	IC50 (Plk2 PBD)	IC50 (Plk3 PBD)	IC50 (Plk1 PBD)	other results
CC(=O)N1CCC[C@H]1C(=O)N[C@@H](CC(C)C)C(=O)N[C@@H](Cc1cncn1CCCCCCCCc1ccccc1)C(=O)N[C@@H](C)C(=O)N[C@H](C(N)=O)[C@H](CP(=O)(O)O)C(C)C [compound 24] (Ac-PL[His(π-(CH2)8Ph)]A[X1]-NH2; N-terminus and C-terminus assumed)					IC50 (full-length Plk1; [1]): 11000 ± 3000 nM; loss of potency of the Ser to Ala variants relative to 21 and 23 (full-length Plk1): approximate two orders-of-magnitude loss of potency
CC(=O)N1CCC[C@H]1C(=O)N[C@@H](CC(C)C)C(=O)N[C@@H](Cc1cncn1CCCCCCCCc1ccccc1)C(=O)N[C@@H](CO)C(=O)N[C@@H](CCP(=O)(O)O)C(N)=O [compound 19] (Ac-PL[His(π-(CH2)8Ph)]S[Abu(4-PO3H2)]-NH2; N-terminus and C-terminus assumed)	1200 ± 300 nM	5400 nM	8800 nM	11 ± 1 nM	
CC[C@@H](CP(=O)(O)O)[C@H](NC(=O)[C@H](CO)NC(=O)[C@H](Cc1cncn1CCCCCCCCc1ccccc1)NC(=O)[C@H](CC(C)C)NC(=O)[C@@H]1CCCN1C(C)=O)C(N)=O [compound 20] (Ac-PL[His(π-(CH2)8Ph)]S[X3]-NH2; N-terminus and C-terminus assumed)	200 ± 60 nM				
CC(=O)N1CCC[C@H]1C(=O)N[C@@H](CC(C)C)C(=O)N[C@@H](Cc1cncn1CCCCCCCCc1ccccc1)C(=O)N[C@@H](C)C(=O)N[C@H](C(N)=O)[C@@H](CCc1ccccc1)CP(=O)(O)O [compound 25] (Ac-PL[His(π-(CH2)8Ph)]A[X2]-NH2; N-terminus and C-terminus assumed)					IC50 (full-length Plk1; [1]): 70000 ± 14000 nM; loss of potency of the Ser to Ala variants relative to 21 and 23 (full-length Plk1): approximate two orders-of-magnitude loss of potency
CC(=O)N1CCC[C@H]1C(=O)N[C@@H](CC(C)C)C(=O)N[C@@H](Cc1cncn1CCCCCCCCc1ccccc1)C(=O)N[C@@H](CO)C(=O)N[C@H](C(N)=O)[C@@H](CCc1ccccc1)CP(=O)(O)O [compound 23] (Ac-PL[His(π-(CH2)8Ph)]S[X2]-NH2; N-terminus and C-terminus assumed)		490 ± 50 nM	1200 nM	4 ± 1 nM	more potent than the parent pThr-containing peptide 5 and its Pmab-containing congener 7 (full-length Plk1): approximately 3 fold
CC(=O)N1CCC[C@H]1C(=O)N[C@@H](CC(C)C)C(=O)N[C@@H](Cc1cncn1CCCCCCCCc1ccccc1)C(=O)N[C@@H](CO)C(=O)N[C@H](C(N)=O)[C@@H](C)OP(=O)(O)O [compound 5]					IC50 values in competitive ELISA assays against Plk1 (Plk1): low-nanomolar
CC(=O)N1CCC[C@H]1C(=O)N[C@@H](CC(C)C)C(=O)N[C@@H](Cc1cncn1CCCCCCCCc1ccccc1)C(=O)N[C@@H](CO)C(=O)N[C@H](C(N)=O)[C@H](CP(=O)(O)O)C(C)C [compound 21] (Ac-PL[His(π-(CH2)8Ph)]S[X1]-NH2; N-terminus and C-terminus assumed)	60 ± 20 nM	360 ± 30 nM	1100 nM	7 ± 1 nM	more potent than the parent pThr-containing peptide 5 and its Pmab-containing congener 7 (full-length Plk1): approximately 3 fold
CC(=O)N1CCC[C@H]1C(=O)N[C@@H](CC(C)C)C(=O)N[C@@H](Cc1cncn1CCCCCCCCc1ccccc1)C(=O)N[C@@H](CO)C(=O)N[C@H](C(N)=O)[C@@H](C)CP(=O)(O)O [compound 7, reference compound]			4400 nM		inhibitory potency on replacement of the pThr residue in 5 with Pmab (Plk1): complete retention of inhibitory potency
